From the NIST ThermoML archive (doi:10.1021/acs.jced.6b00496)
Numbers after ± are expanded uncertainties.

Test: xn = mol fraction of the nth substance listed
Details: 81.5 kPa, Liquid; for speed of sound: Sing-around technique in a fixed-path interferometer; for mass density: Vibrating tube method

CCn1cc[n+](C)c1.F[B-](F)(F)F [1-ethyl-3-methylimidazolium tetrafluoroborate] + CC(=O)N(C)C
Details	mass density [kg/m3]	speed of sound [m/s]
293.15 K, x1 = 0.131	1020.02 ± 4.1	1520.9 ± 3.3
293.15 K, x1 = 0.198	1054.86 ± 4.2	1544.9 ± 3.3
293.15 K, x1 = 0.2976	1098.69 ± 4.4	1566.5 ± 3.3
293.15 K, x1 = 0.3868	1134.17 ± 4.6	1581.8 ± 3.4
293.15 K, x1 = 0.4734	1164.33 ± 4.7	1594.3 ± 3.4
293.15 K, x1 = 0.563	1190.97 ± 4.8	1606.8 ± 3.5
293.15 K, x1 = 0.7089	1230.24 ± 5	1620 ± 3.5
293.15 K, x1 = 0.7973	1244.59 ± 5.1	1625.7 ± 3.6
293.15 K, x1 = 0.8821	1257.25 ± 5.2	1629.9 ± 3.6
293.15 K, x1 = 1	1285.95 ± 5.3	1640.4 ± 3.7
298.15 K, x1 = 0.131	1015.67 ± 4.1	1502.5 ± 3.3
298.15 K, x1 = 0.198	1050.63 ± 4.2	1527.6 ± 3.3
298.15 K, x1 = 0.2976	1094.55 ± 4.4	1550.4 ± 3.3
298.15 K, x1 = 0.3868	1130.11 ± 4.6	1566.4 ± 3.4
298.15 K, x1 = 0.4734	1160.32 ± 4.7	1579.8 ± 3.4
298.15 K, x1 = 0.563	1187.07 ± 4.8	1592.9 ± 3.5
298.15 K, x1 = 0.7089	1226.34 ± 5	1606.9 ± 3.5
298.15 K, x1 = 0.7973	1240.73 ± 5.1	1613 ± 3.6
298.15 K, x1 = 0.8821	1253.4 ± 5.1	1617.4 ± 3.6
298.15 K, x1 = 1	1282.14 ± 5.3	1628.4 ± 3.7
303.15 K, x1 = 0.131	1011.32 ± 4.1	1484.4 ± 3.3
303.15 K, x1 = 0.198	1046.39 ± 4.2	1510.4 ± 3.3
303.15 K, x1 = 0.2976	1090.43 ± 4.4	1534.3 ± 3.3
303.15 K, x1 = 0.3868	1126.06 ± 4.5	1551.3 ± 3.4
303.15 K, x1 = 0.4734	1156.33 ± 4.7	1565.3 ± 3.4
303.15 K, x1 = 0.563	1183.16 ± 4.8	1579.1 ± 3.5
303.15 K, x1 = 0.7089	1222.46 ± 5	1594.1 ± 3.5
303.15 K, x1 = 0.7973	1236.88 ± 5.1	1600.4 ± 3.6
303.15 K, x1 = 0.8821	1249.55 ± 5.1	1605.1 ± 3.6
303.15 K, x1 = 1	1278.34 ± 5.3	1616 ± 3.7
308.15 K, x1 = 0.131	1006.92 ± 4	1466.5 ± 3.3
308.15 K, x1 = 0.198	1042.17 ± 4.2	1493.4 ± 3.3
308.15 K, x1 = 0.2976	1086.31 ± 4.4	1518.5 ± 3.3
308.15 K, x1 = 0.3868	1122.03 ± 4.5	1536.2 ± 3.4
308.15 K, x1 = 0.4734	1152.37 ± 4.6	1551.1 ± 3.4
308.15 K, x1 = 0.563	1179.25 ± 4.8	1565.5 ± 3.5
308.15 K, x1 = 0.7089	1218.61 ± 5	1581.4 ± 3.5
308.15 K, x1 = 0.7973	1233.06 ± 5	1588 ± 3.6
308.15 K, x1 = 0.8821	1245.73 ± 5.1	1592.9 ± 3.6
308.15 K, x1 = 1	1274.55 ± 5.3	1604.9 ± 3.7
313.15 K, x1 = 0.131	1002.63 ± 4	1448.8 ± 3.3
313.15 K, x1 = 0.198	1037.96 ± 4.2	1476.5 ± 3.3
313.15 K, x1 = 0.2976	1082.21 ± 4.3	1502.7 ± 3.3
313.15 K, x1 = 0.3868	1118 ± 4.5	1521.4 ± 3.4
313.15 K, x1 = 0.4734	1148.41 ± 4.6	1536.9 ± 3.4
313.15 K, x1 = 0.563	1175.34 ± 4.8	1552.1 ± 3.5
313.15 K, x1 = 0.7089	1214.78 ± 4.9	1568.8 ± 3.5
313.15 K, x1 = 0.7973	1229.25 ± 5	1575.7 ± 3.6
313.15 K, x1 = 0.8821	1241.92 ± 5.1	1580.8 ± 3.6
313.15 K, x1 = 1	1270.78 ± 5.2	1593.4 ± 3.7
318.15 K, x1 = 0.131	–	1431.2 ± 3.3
318.15 K, x1 = 0.198	–	1459.8 ± 3.3
318.15 K, x1 = 0.2976	–	1487.1 ± 3.3
318.15 K, x1 = 0.3868	–	1506.6 ± 3.4
318.15 K, x1 = 0.4734	–	1522.9 ± 3.4
318.15 K, x1 = 0.563	–	1538.7 ± 3.5
318.15 K, x1 = 0.7089	–	1556.3 ± 3.5
318.15 K, x1 = 0.7973	–	1563.5 ± 3.6
318.15 K, x1 = 0.8821	–	1568.9 ± 3.6
318.15 K, x1 = 1	–	1582 ± 3.7
